Our source for the inhibition, IC50 and Activity values is ChEMBL document CHEMBL4804281, “STK4 inhibitors for treatment of hematologic malignancies” (2020).

Assay [1] addresses Mitogen-activated protein kinase 8 (Homo sapiens) (UniProt P45983). The assay can be described thus: Inhibition of JNK1 in human NCI-H929 cells at 10 uM by mass spectroscopic analysis relative to control. The assay is classed as cell-based.
Assay [2] has as its target Serine/threonine-protein kinase 24 (Homo sapiens) (UniProt Q9Y6E0). The assay can be described thus: Inhibition of STK24 (unknown origin) using fluorescein-labelled Ser/Thr-07 peptide as substrate incubated for 1 hr in presence of ATP at Km concentration by Z-LYTE assay.
For assay [3], the target named is T1, Kinase suppressor of Ras 2 (Homo sapiens) (UniProt Q6VAB6).
T1 sequence (whole entry): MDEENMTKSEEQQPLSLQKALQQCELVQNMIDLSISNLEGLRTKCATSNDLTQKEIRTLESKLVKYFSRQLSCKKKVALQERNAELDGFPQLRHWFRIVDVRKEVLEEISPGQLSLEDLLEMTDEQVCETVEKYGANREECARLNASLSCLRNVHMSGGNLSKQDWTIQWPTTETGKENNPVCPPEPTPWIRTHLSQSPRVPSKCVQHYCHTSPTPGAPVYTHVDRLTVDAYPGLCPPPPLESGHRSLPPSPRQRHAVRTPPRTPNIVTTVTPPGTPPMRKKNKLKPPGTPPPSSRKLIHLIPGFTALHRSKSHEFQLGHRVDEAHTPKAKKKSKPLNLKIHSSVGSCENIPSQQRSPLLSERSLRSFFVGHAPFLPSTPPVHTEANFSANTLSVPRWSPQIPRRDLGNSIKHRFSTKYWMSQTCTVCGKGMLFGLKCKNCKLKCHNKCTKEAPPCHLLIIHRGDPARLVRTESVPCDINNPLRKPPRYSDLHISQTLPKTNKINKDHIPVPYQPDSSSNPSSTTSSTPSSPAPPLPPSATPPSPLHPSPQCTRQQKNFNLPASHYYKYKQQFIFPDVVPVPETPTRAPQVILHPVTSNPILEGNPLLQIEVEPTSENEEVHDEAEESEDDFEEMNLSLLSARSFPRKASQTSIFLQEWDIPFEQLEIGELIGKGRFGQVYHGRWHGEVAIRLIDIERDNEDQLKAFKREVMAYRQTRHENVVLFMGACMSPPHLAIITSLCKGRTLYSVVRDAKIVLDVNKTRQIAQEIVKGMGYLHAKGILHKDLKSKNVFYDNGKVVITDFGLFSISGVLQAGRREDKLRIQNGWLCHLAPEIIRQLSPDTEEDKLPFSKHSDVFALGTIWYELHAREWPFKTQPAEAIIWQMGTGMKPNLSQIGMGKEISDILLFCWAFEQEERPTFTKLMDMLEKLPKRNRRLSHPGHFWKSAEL
The assay can be described thus: Inhibition of KSR2 in human NCI-H929 cells at 10 uM by mass spectroscopic analysis relative to control. The assay is classed as cell-based.

Assay [4] concerns the target MAP kinase-activated protein kinase 2 (Homo sapiens) (UniProt P49137). The assay can be described thus: Inhibition of MAPKAPK2 in human NCI-H929 cells at 10 uM by mass spectroscopic analysis relative to control. The assay is classed as cell-based.
For assay [5], the target named is Bone morphogenetic protein receptor type-1B (Homo sapiens) (UniProt O00238). The experiment in a line: Inhibition of BMPR1B in human NCI-H929 cells at 10 uM by mass spectroscopic analysis relative to control. The assay is classed as cell-based.
Assay [6] has as its target Mitogen-activated protein kinase 10 (Homo sapiens) (UniProt P53779). The experiment in a line: Inhibition of JNK3 in human NCI-H929 cells at 10 uM by mass spectroscopic analysis relative to control. The assay is classed as cell-based.
Assay [7] addresses Dual specificity mitogen-activated protein kinase kinase 2 (Homo sapiens) (UniProt P36507). The experiment in a line: Inhibition of MAP2K2 in human NCI-H929 cells at 10 uM by mass spectroscopic analysis relative to control. The assay is classed as cell-based.
In assay [8] the target is Mitogen-activated protein kinase 9 (Homo sapiens) (UniProt P45984). The experiment in a line: Inhibition of JNK2 in human NCI-H929 cells at 10 uM by mass spectroscopic analysis relative to control. The assay is classed as cell-based.
In assay [9] the target is Calcium/calmodulin-dependent protein kinase type II subunit beta (Homo sapiens) (UniProt Q13554). The experiment in a line: Inhibition of CAMK2B in human NCI-H929 cells at 10 uM by mass spectroscopic analysis relative to control. The assay is classed as cell-based.
Assay [10] concerns the target Serine/threonine-protein kinase 25 (Homo sapiens) (UniProt O00506). The assay can be described thus: Inhibition of YSK1 in human NCI-H929 cells at 10 uM by mass spectroscopic analysis relative to control. The assay is classed as cell-based.
In assay [11] the target is Calcium/calmodulin-dependent protein kinase type II subunit alpha (Homo sapiens) (UniProt Q9UQM7). The assay can be described thus: Inhibition of CAMK2A in human NCI-H929 cells at 10 uM by mass spectroscopic analysis relative to control. The assay is classed as cell-based.
For assay [12], the target named is PRKCI, protein kinase C iota (Homo sapiens) (UniProt P41743). The experiment in a line: Inhibition of PKCi in human NCI-H929 cells at 10 uM by mass spectroscopic analysis relative to control.
For assay [13], the target named is T2, Mitogen-activated protein kinase 12 (Homo sapiens) (UniProt P53778).
T2 sequence (whole entry): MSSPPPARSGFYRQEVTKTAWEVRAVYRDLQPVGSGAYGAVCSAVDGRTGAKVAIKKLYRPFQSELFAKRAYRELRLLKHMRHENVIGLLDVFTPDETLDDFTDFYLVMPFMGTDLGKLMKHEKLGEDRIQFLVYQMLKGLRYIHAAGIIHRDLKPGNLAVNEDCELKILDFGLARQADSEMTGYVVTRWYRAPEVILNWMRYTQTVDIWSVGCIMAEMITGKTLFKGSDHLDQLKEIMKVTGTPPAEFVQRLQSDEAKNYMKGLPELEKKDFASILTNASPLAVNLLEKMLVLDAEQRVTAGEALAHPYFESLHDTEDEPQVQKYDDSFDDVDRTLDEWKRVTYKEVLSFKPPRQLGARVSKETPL
The experiment in a line: Inhibition of P38gamma in human NCI-H929 cells at 10 uM by mass spectroscopic analysis relative to control. The assay is classed as cell-based.

In assay [14] the target is RAC-beta serine/threonine-protein kinase (Homo sapiens) (UniProt P31751). The experiment in a line: Inhibition of AKT2 in human NCI-H929 cells at 10 uM by mass spectroscopic analysis relative to control. The assay is classed as cell-based.
A further assay deals with MM1.S. The assay can be described thus: Upregulation of YAP1 protein level in human MM1.S cells at 1 uM measured after 16 hrs by Western blot analysis. The assay is classed as functional, cell-based. (In general: In western blotting, separated proteins are transferred to a membrane and probed.)
The target in assay [15] is Rho-associated protein kinase 1 (Homo sapiens) (UniProt Q13464). The experiment in a line: Inhibition of ROCK1 in human NCI-H929 cells at 10 uM by mass spectroscopic analysis relative to control. The assay is classed as cell-based.
Assay [16] concerns the target RAC-gamma serine/threonine-protein kinase (Homo sapiens) (UniProt Q9Y243). The assay can be described thus: Inhibition of AKT3 in human NCI-H929 cells at 10 uM by mass spectroscopic analysis relative to control. The assay is classed as cell-based.
Assay [17] has as its target DNA-dependent protein kinase catalytic subunit (Homo sapiens) (UniProt P78527). The assay can be described thus: Inhibition of DNAPK in human NCI-H929 cells at 10 uM by mass spectroscopic analysis relative to control. The assay is classed as cell-based.

Molecules are shown by their SMILES. Active and inactive are the calls of the source. The rule behind the calls is not given here.

Chain of Dual specificity mitogen-activated protein kinase kinase 2 (Homo sapiens) (P36507 whole entry): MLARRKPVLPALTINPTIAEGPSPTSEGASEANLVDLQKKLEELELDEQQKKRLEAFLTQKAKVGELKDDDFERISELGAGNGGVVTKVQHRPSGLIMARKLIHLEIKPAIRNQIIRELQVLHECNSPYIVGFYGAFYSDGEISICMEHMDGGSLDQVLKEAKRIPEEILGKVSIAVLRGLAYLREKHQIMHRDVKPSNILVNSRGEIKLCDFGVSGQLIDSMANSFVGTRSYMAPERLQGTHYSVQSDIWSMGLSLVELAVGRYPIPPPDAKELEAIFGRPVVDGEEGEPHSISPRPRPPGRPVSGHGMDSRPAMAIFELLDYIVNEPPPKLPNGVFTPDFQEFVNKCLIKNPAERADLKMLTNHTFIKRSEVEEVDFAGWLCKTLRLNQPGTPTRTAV
Chain of Mitogen-activated protein kinase 9 (Homo sapiens) (P45984 whole entry, looked up): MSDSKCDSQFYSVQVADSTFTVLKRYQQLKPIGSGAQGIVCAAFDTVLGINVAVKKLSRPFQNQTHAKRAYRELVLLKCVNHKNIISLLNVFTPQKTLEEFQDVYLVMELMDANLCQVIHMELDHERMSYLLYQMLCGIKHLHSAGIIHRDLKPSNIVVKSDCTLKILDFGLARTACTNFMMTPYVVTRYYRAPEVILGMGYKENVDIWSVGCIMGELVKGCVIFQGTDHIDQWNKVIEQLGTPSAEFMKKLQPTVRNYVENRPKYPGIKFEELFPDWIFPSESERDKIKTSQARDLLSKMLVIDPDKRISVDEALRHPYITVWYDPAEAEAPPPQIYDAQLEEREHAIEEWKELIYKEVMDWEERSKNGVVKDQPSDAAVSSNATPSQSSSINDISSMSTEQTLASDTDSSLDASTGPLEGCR
Chain of Mitogen-activated protein kinase 10 (Homo sapiens) (P53779 whole entry): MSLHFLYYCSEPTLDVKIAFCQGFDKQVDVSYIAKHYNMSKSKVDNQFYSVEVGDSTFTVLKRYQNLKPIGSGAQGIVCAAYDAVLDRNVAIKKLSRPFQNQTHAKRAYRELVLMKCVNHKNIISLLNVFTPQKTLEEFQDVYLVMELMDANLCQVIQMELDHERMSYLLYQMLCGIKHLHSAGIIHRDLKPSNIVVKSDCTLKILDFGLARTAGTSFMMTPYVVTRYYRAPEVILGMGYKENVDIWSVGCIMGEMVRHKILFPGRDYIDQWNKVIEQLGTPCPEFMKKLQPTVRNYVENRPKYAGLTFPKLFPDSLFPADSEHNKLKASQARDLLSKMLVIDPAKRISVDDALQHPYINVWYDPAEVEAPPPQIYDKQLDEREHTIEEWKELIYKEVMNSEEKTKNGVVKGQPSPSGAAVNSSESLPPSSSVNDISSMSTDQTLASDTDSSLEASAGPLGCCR
Chain of Calcium/calmodulin-dependent protein kinase type II subunit alpha (Homo sapiens) (Q9UQM7 whole entry): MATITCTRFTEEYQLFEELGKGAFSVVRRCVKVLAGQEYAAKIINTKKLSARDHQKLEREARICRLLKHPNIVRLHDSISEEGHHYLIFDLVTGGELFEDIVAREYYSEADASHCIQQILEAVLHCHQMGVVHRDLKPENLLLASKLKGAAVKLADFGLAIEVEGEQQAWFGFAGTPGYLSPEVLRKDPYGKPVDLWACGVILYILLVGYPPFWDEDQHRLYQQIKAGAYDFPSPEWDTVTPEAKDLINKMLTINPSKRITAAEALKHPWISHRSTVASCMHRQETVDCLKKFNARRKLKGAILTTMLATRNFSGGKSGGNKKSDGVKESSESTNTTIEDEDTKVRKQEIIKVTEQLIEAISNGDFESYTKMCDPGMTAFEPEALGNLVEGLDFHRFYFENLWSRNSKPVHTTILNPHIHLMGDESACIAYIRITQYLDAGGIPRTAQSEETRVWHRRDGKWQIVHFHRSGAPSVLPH
Chain of MAP kinase-activated protein kinase 2 (Homo sapiens) (P49137 whole entry, looked up): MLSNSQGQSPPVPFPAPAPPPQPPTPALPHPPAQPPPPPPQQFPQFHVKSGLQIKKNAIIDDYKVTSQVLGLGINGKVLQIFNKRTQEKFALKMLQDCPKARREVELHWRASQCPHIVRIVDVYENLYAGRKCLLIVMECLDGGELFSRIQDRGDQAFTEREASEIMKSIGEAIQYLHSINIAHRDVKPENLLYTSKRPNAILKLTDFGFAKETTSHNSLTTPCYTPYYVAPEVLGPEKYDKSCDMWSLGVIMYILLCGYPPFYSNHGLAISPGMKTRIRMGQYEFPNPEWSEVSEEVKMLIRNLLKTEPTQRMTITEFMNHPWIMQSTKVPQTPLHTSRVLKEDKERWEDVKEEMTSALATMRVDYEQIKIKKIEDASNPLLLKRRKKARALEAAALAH
Chain of PRKCI, protein kinase C iota (Homo sapiens) (P41743 whole entry, looked up): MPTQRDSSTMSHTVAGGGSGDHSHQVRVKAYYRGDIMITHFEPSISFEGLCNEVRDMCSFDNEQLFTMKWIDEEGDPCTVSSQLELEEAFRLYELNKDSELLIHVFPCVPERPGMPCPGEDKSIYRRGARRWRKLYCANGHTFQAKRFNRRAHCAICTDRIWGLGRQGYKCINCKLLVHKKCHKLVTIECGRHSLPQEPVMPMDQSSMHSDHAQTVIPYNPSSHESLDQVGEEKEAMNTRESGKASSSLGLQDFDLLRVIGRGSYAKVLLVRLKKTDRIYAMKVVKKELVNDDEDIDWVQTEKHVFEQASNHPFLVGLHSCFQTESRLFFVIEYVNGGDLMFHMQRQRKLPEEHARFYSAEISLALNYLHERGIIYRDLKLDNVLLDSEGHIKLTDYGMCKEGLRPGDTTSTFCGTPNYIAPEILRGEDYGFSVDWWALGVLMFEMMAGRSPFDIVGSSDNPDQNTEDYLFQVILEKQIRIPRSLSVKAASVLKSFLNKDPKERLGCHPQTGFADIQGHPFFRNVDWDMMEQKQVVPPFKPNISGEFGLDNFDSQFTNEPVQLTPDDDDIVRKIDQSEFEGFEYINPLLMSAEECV
Chain of Calcium/calmodulin-dependent protein kinase type II subunit beta (Homo sapiens) (Q13554 whole entry): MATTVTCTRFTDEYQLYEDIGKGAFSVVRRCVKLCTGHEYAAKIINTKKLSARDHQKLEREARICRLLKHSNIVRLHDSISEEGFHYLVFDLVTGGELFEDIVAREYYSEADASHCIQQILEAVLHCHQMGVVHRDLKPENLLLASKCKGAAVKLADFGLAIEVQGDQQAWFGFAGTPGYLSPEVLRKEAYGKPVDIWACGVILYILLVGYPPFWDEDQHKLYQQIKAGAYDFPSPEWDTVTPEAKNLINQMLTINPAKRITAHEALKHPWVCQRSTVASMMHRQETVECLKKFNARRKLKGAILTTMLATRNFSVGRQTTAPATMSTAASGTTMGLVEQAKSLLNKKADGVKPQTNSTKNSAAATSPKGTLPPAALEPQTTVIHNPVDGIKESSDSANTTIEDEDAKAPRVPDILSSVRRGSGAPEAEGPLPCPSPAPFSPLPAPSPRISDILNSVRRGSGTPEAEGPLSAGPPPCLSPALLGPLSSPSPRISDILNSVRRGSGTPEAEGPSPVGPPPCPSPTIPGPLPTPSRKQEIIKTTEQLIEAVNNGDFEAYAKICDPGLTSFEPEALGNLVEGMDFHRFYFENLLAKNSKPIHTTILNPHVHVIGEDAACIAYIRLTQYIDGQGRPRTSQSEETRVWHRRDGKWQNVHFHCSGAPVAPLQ
Chain of RAC-gamma serine/threonine-protein kinase (Homo sapiens) (Q9Y243 whole entry): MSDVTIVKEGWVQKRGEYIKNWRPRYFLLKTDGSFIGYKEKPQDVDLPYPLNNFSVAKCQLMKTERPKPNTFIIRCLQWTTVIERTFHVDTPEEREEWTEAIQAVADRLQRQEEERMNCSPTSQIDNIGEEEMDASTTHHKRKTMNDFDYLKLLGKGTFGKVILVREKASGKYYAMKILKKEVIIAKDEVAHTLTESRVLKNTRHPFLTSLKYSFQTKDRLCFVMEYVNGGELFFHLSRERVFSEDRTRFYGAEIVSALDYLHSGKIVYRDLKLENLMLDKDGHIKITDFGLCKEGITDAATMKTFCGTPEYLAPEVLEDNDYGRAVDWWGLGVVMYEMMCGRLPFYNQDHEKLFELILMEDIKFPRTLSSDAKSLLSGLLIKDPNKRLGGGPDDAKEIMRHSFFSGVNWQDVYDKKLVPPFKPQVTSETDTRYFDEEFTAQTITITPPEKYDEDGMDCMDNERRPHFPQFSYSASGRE
Chain of Serine/threonine-protein kinase 24 (Homo sapiens) (Q9Y6E0 whole entry, looked up): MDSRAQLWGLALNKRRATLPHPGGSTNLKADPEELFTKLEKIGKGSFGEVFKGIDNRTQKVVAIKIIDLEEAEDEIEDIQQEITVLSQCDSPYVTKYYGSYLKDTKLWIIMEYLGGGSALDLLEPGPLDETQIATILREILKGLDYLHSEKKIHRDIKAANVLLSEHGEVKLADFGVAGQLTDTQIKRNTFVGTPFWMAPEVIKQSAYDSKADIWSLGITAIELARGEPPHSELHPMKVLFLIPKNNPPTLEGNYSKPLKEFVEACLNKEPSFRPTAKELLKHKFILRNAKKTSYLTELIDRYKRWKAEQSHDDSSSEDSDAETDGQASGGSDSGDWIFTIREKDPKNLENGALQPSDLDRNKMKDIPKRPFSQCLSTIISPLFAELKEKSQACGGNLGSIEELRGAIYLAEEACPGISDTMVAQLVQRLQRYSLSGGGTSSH
Chain of RAC-beta serine/threonine-protein kinase (Homo sapiens) (P31751 whole entry): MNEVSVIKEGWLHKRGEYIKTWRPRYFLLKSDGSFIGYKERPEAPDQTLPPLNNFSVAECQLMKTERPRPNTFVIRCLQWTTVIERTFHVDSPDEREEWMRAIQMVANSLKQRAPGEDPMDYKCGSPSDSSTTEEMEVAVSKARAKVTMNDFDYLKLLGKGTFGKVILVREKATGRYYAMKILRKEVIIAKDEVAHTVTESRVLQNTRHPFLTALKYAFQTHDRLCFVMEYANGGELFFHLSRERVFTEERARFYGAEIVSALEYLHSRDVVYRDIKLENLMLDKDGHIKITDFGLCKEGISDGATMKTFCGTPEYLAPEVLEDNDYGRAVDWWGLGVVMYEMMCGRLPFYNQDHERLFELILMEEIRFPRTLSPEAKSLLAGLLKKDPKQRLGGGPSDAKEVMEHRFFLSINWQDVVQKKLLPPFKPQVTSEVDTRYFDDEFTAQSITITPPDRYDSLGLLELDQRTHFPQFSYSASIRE

Broadly, the inhibition is the drop in the measured response relative to a control, in per cent. As usually defined, the IC50 is the midpoint of a concentration-inhibition curve. Turning to `COc1cc(NS(=O)(=O)C2CC2)ccc1-c1cnc(N)c(-c2ccc3c(c2)CCNC3=O)c1`, the inhibition turned out to be 0% in [1]; 0% in [3]; 0% in assay [4]; 75% in assay [5]; 75% in assay [6]; 0% in assay [7]. The inhibition in assay [8], in assay [9], in assay [10], in assay [11], in assay [12] and in assay [13] was 0% each time. Further, the IC50 in assay [2] was determined as 200 nM.

On to `Nc1ncc(-c2cccc3ncsc23)cc1-c1ccc2c(c1)CCNC2=O`, for which the inhibition in [1], in assay [14], in [3], in assay [4], in assay [15] and in assay [6] was 0% throughout. For the same molecule, the inhibition in [8] is 0%; in assay [9], 0%; in assay [16], 0%; in [10] it was 0%; in [11], 0%; in [17] it was less than 75%. The inhibition in [12] and in assay [13] was 0% each time. Besides, the IC50 in assay [2] is greater than 900 nM. Also, in the assay on MM1.S, the result was Active.

In the case of `Nc1ncc(-c2cccc([N+](=O)[O-])c2F)cc1-c1ccc2c(c1)CCNC2=O`, the inhibition in assay [1], in assay [14], in [3], in assay [4], in assay [15] and in assay [6] was 0% throughout. Besides, the inhibition in assay [8], in [9], in assay [16], in assay [10], in assay [11] and in assay [12] was 0% each time. For the same molecule, the inhibition in assay [13] amounted to 0%. Moreover, the IC50 in assay [2] was greater than 900 nM. For the same molecule, in the assay with MM1.S, the result was Active.

Consider `Nc1ncc(-c2ccc(NS(=O)(=O)C3CC3)cc2OC2CCCCC2)cc1-c1ccc2c(c1)CCNC2=O`, for which the inhibition in assay [1] was 0%; in assay [3], 0%; in assay [4], 0%; in assay [5], greater than 90%; in assay [6] it was 0%; in [7], 0%. The inhibition in assay [8], in assay [9], in assay [11], in assay [17], in assay [12] and in assay [13] was 0% in each case. The half-inhibitory concentration (IC50) in assay [2] is greater than 900 nM.

Take `Nc1ncc(-c2ccc(NS(=O)(=O)C3CC3)cc2F)cc1-c1ccc2c(c1)CCNC2=O`: the inhibition in assay [1], in assay [3], in [4], in [5], in [6] and in assay [7] was 0% each time. Besides, the inhibition in assay [8] is 0%; in assay [9], 0%; in assay [10], less than 75%; in [11] it was 0%; in [17], 0%; in [12] it was 0%. Moreover, in assay [13], the inhibition was determined as 0%. Besides, the IC50 in assay [2] amounted to 40 nM.

Consider `CN(C1CC1)S(=O)(=O)c1ccc(-c2cnc(N)c(-c3ccc4c(c3)CCNC4=O)c2)c(F)c1`, for which the inhibition in [1], in [14], in [3], in assay [4], in assay [15] and in assay [6] was 0% each time. Also, the inhibition in assay [8] is 0%; in assay [9], 0%; in [16] it was 0%; in [10], less than 90%; in [11], 0%; in assay [17] it was less than 90%. In addition, the inhibition in [12] and in assay [13] was 0% throughout. Besides, in [2], the IC50 was found to be 40 nM. Besides, in the assay with MM1.S, the outcome was Active.
